From patent US9163011B2, “Oxazine derivatives and their use in the treatment of disease” (NOVARTIS AG, priority 2011, dated 2015)

Columns and labels:
[1] = system: Soluble Abeta40 levels in the rat brain and CSF; test: Test 5: In Vivo Inhibitory Activity (Abeta lowering in rat brain and CSF); details: male Sprague-Dawley rats, oral gavage, 10 micromoles per kilogram, 4 hours prior to sacrifice; n.s.=not statistically significant
Protocol: Test 5: In Vivo Inhibitory Activity of Example Compounds
Male Sprague-Dawley rats, 220-280 g weight, (Charles River, France) were dosed by oral gavage with vehicle alone (0.1% Tween80, 0.5% methylcellulose in water) or with compound suspended in vehicle at a dose of 10 micromoles compound per kilogram body weight, 4 hours prior to sacrifice. The 4 hour timepoint was selected in order to compare the activity of compounds that have sufficient pharmacokinetic and biodistribution properties to reduce total brain Abeta within approximately three half-lives of the rat brain Abeta40 peptide.
Immediately prior to sacrifice, anaesthetized rat (spontaneous inhalation, 2-5% Isoflurane and air) were fixed in a stereotaxic apparatus on a raised platform, with anesthesia maintained though a nose cone. The angle of the head was tilted downward, perpendicular to the body, and a hypodermic needle lowered through the skin behind the occipital ridge, into the Cisterna magna. Cerebrospinal fluid (CSF) was withdrawn (˜50-100 μL), dispensed into tubes (protein Lo-bind Eppendorf tubes for Abeta40 analysis, normal Eppendorph tubes for compound analysis), frozen on dry ice and stored at −80° C. until analysis. Rats were then immediately decapitated under anesthesia, trunk blood collected for analysis of compound levels and the brain retrieved. One half-forebrain was dissected by removing the cerebellum and olfactory bulbs, frozen in three pieces on a metal plate pre-cooled on frozen CO2 and stored in tubes at −80° C. until analysis for Abeta40. For the other half-brain, olfactory bulbs were discarded and a sagittal slice taken from the medial aspect, weighing ˜200-400 mg, placed in glass HPLC tubes and frozen on dry ice until analysis for compound levels.
Soluble Abeta40 levels in the rat brain and CSF were quantified using a Meso Scale Discovery (MSD) 96-well MULTI-ARRAY human/rodent (4G8) Abeta40 Ultrasensitive Assay (#K110FTE-3, Meso Scale Discovery, Gaithersburg, USA). Forebrain sample homogenates were prepared by sonication in 9 volumes (w/v) of ice cold TBA. Fifty μL of 2% TX-100 in TBS-complete was added to 50 μL aliquots of the homogenate to reach a final concentration of 1% TX-100 in a 1:20 dilution. Samples were incubated on ice for 15 min interrupted with 3 short vortexing steps, then centrifuged (100 000×g, 4° C., 15 min), and 50 μL of supernatant collected. This was further diluted 1:5 with 3% Blocker A solution from the MSD kit to a final dilution of 1:100 and applied to the MSD plate. CSF samples containing blood were excluded. All other CSF samples were diluted with 1% Blocker A solution (from manufacturers kit) to reach a 1:20 CSF dilution. Calibration curves were prepared in 1% Blocker A solution spiked with synthetic Abeta1-40 peptide. Samples and calibration standards were applied in duplicate at a volume of 25 μL per well. Abeta40 concentrations of samples were estimated from the standard curve using SOFTmax PRO4.0.

[2] = target: Human BACE-2 (Homo sapiens (Human), UniProt Q9Y5Z0); test: Test 2: Inhibition of Human BACE-2; assay type: biochemical; details: recombinant BACE-2, pH 4.5, 1 hour preincubation
Chain of Human BACE-2 (Q9Y5Z0 63-473): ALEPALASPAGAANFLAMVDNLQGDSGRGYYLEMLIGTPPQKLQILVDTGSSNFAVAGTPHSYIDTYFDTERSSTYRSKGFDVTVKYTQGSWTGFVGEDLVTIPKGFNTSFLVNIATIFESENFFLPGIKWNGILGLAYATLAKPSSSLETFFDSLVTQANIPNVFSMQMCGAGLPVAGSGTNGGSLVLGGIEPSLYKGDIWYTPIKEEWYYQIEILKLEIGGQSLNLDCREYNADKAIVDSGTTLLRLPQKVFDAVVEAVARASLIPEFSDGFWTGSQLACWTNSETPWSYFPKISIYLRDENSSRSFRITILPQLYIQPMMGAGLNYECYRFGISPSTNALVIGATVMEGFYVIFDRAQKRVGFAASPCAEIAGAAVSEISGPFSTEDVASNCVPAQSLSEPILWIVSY
Protocol: Test 2: Inhibition of Human BACE-2
(§1) Recombinant BACE-2 (extracellular domain, expressed in baculovirus and purified using standard methods) at 0.1 to 1 nM concentrations is incubated with the test compound at various concentrations for 1 hour at room temperature in 100 mM acetate buffer, pH 4.5, containing 0.1% CHAPS. Activity was measured using a final concentration of 3 μM of the fluorescence-quenched substrate Q-C(HSO3)-Ile-Asp-Leu-Ala-Val-Leu-Asp-HN—CH2—CH2-Mca, where Q=2-nitro-5-amino benzoic acid and Mca=7-methoxy-4-coumarinyl acetic acid. Catalytic turnover was monitored in a Spectramax Gemini fluorescence plate reader (Molecular Devices) in black 96-well microplates using excitation/emission wavelength of 325 nm and 400 nm, respectively. Fluorescence increase was followed for 15 min, in 1 minute's intervals. The fluorescence/time slopes were calculated from duplicate wells and from wells without inhibitor and the IC50 values were calculated using a logistic 4-parameter model.

[3] = target: Human BACE-1 (Homo sapiens (Human), UniProt P56817); test: Test 1: Inhibition of Human BACE-1; assay type: biochemical; details: recombinant BACE-1, pH 4.5, 1 hour preincubation
Chain of Human BACE-1 (P56817 46-457): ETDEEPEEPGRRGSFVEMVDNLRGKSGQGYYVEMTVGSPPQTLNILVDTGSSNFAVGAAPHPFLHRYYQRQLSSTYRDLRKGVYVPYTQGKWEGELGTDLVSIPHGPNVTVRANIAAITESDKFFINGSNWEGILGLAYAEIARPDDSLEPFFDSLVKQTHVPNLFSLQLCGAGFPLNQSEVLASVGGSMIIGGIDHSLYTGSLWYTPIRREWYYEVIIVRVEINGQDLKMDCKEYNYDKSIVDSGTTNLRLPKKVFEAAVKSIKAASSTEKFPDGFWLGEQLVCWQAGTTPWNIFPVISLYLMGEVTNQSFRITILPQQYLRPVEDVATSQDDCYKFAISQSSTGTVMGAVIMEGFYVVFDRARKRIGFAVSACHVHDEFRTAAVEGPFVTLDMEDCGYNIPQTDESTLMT
Protocol: Test 1: Inhibition of Human BACE-1
as §1, with “BACE-1” for “BACE-2”

[4] = Test 4: Inhibition of Cellular Release of Amyloid Peptide 1-40; assay type: cell-based, Chinese hamster; details: Cricetulus griseus; CHO cells with human APP, 24 hours with compound; read-out: Test 4 Amyloid-β1-40 release IC50
Protocol: The cells are plated at a density of 8000 cells/well into 96-well microtiter plates and cultivated for 24 hours in DMEM cell culture medium containing 10% FCS. The test compound is added to the cells at various concentrations, and the cells are cultivated for 24 hours in the presence of the test compound. […] The potency of the compound is calculated from the percentage of inhibition of amyloid peptide release as a function of the test compound concentration.

Row | SMILES | IC50 [2] [µM] | IC50 [3] [µM] | IC50 [4] [µM] | Abeta lowering in rat CSF [1] | Abeta lowering in rat forebrain [1]
1 | CC1(C)OC(N)=NC(C)(c2cc(NC(=O)c3ncc(C#N)cc3Cl)ccc2F)C1(F)F (stereo not shown) [22 WO 2011/069934 A1, reference compound] |  |  |  | −17.9% | −7.8% (n.s.)
2 | CC1(c2cc(NC(=O)c3ncc(C#N)cc3Cl)ccc2F)N=C(N)OCC1(F)F (stereo not shown) [39 WO 2011/069934 A1, reference compound] |  |  |  | −8.2% (n.s.) | −1.4% (n.s.)
3 | CC1(c2cc(NC(=O)c3nn(C(F)F)cc3Cl)ccc2F)N=C(N)OCC1(F)F (stereo not shown) [71 WO 2011/069934 A1, reference compound] |  |  |  | −30.4% | 5.6% (n.s.)
4 | CC1(C)OC(N)=N[C@](C)(c2nc(NC(=O)c3ncc(C#N)cc3Cl)ccc2F)C1(F)F [Example 3, 3-Chloro-5-cyano-pyridine-2-carboxylic acid [6-((R)-2-amino-5,5-difluoro-4,6,6-trimethyl-5,6-dihydro-4H-[1,3]oxazin-4-yl)-5-fluoro-pyridin-2-yl]-amide] |  |  |  | −35.3% | −20.0%
5 | C[C@]1(c2nc(NC(=O)c3ncc(C(F)(F)F)cc3Cl)ccc2F)N=C(N)OCC1(F)F [Example 7, 3-Chloro-5-trifluoromethyl-pyridine-2-carboxylic acid [6-((R)-2-amino-5,5-difluoro-4-methyl-5,6-dihydro-4H-[1,3]oxazin-4-yl)-5-fluoro-pyridin-2-yl]-amide] |  |  |  | −67.9% | −63.6%
6 | C[C@]1(c2nc(NC(=O)c3ncc(OCCF)nc3N)ccc2F)N=C(N)OCC1(F)F [Example 25, 3-Amino-5-(2-fluoro-ethoxy)-pyrazine-2-carboxylic acid [6-((R)-2-amino-5,5-difluoro-4-methyl-5,6-dihydro-4H-[1,3]oxazin-4-yl)-5-fluoro-pyridin-2-yl]-amide] | > 10 | 0.57 | 0.48 |  | 
7 | C[C@]1(c2nc(NC(=O)c3ncc(OCF)cc3Cl)ccc2F)N=C(N)OCC1(F)F [Example 26, 3-Chloro-5-fluoromethoxy-pyridine-2-carboxylic acid [6-((R)-2-amino-5,5-difluoro-4-methyl-5,6-dihydro-4H-[1,3]oxazin-4-yl)-5-fluoro-pyridin-2-yl]-amide] | 0.027 | 0.11 | 0.057 |  | 
8 | CCOc1cnc(C(=O)Nc2ccc(F)c([C@@]3(C)N=C(N)OCC3(F)F)n2)c(Cl)c1 [Example 27, 3-Chloro-5-ethoxy-pyridine-2-carboxylic acid [6-((R)-2-amino-5,5-difluoro-4-methyl-5,6-dihydro-4H-[1,3]oxazin-4-yl)-5-fluoro-pyridin-2-yl]-amide] | 0.42 | 0.29 | 0.45 |  | 
9 | [2H]C([2H])([2H])C([2H])([2H])Oc1cnc(C(=O)Nc2ccc(F)c([C@@]3(C)N=C(N)OCC3(F)F)n2)c(N)n1 [Example 28, 3-Amino-5-(penta-deutero-ethoxy)-pyrazine-2-carboxylic acid [6-((R)-2-amino-5,5-difluoro-4-methyl-5,6-dihydro-4H-[1,3]oxazin-4-yl)-5-fluoro-pyridin-2-yl]-amide] | 10 | 1.9 | 0.84 |  | 

Further lines, with some results ahead:

Row | IC50 [2] [µM] | IC50 [3] [µM] | IC50 [4] [µM] | SMILES | Abeta lowering in rat CSF [1] | Abeta lowering in rat forebrain [1]
10 | 5.6 | 0.15 | 0.07 | COCCc1cnc(C(=O)Nc2ccc(F)c([C@@]3(C)N=C(N)OCC3(F)F)n2)c(N)n1 [Example 29, 3-Amino-5-(2-methoxy-ethyl)-pyrazine-2-carboxylic acid [6-((R)-2-amino-5,5-difluoro-4-methyl-5,6-dihydro-4H-[1,3]oxazin-4-yl)-5-fluoro-pyridin-2-yl]-amide] |  | 
11 | 0.49 | 0.54 | 0.18 | C[C@]1(c2nc(NC(=O)c3nccnc3N)ccc2F)N=C(N)OCC1(F)F [Example 31, 3-Amino-pyrazine-2-carboxylic acid [6-((R)-2-amino-5,5-difluoro-4-methyl-5,6-dihydro-4H-[1,3]oxazin-4-yl)-5-fluoro-pyridin-2-yl]-amide] |  | 
12 | 0.93 | 0.06 | 0.019 | C[C@]1(c2nc(NC(=O)c3ncc(C#CCO)cc3Cl)ccc2F)N=C(N)OCC1(F)F [Example 32, 3-Chloro-5-(3-hydroxy-prop-1-ynyl)-pyridine-2-carboxylic acid [6-((R)-2-amino-5,5-difluoro-4-methyl-5,6-dihydro-4H-[1,3]oxazin-4-yl)-5-fluoro-pyridin-2-yl]-amide] |  | 
13 | 0.26 | 0.14 | 0.066 | C[C@]1(c2nc(NC(=O)c3ncc(C(F)F)cc3N)ccc2F)N=C(N)OCC1(F)F [Example 33, 3-Amino-5-difluoromethyl-pyridine-2-carboxylic acid [6-((R)-2-amino-5,5-difluoro-4-methyl-5,6-dihydro-4H-[1,3]oxazin-4-yl)-5-fluoro-pyridin-2-yl]-amide] |  | 
14 | > 10 | > 10 | 6.5 | CC(F)(F)c1nc(N)c(C(=O)Nc2ccc(F)c([C@@]3(C)N=C(N)OCC3(F)F)n2)nc1Cl [Example 34, 3-Amino-6-chloro-5-(1,1-difluoro-ethyl)-pyrazine-2-carboxylic acid [6-((R)-2-amino-5,5-difluoro-4-methyl-5,6-dihydro-4H-[1,3]oxazin-4-yl)-5-fluoro-pyridin-2-yl]-amide] |  | 
15 | 0.26 | 0.054 | 0.014 | C[C@]1(c2nc(NC(=O)c3ccc(C#N)cn3)ccc2F)N=C(N)OCC1(F)F [Example 35, 5-Cyano-pyridine-2-carboxylic acid [6-((R)-2-amino-5,5-difluoro-4-methyl-5,6-dihydro-4H-[1,3]oxazin-4-yl)-5-fluoro-pyridin-2-yl]-amide] |  | 
16 | > 10 | 0.064 | 0.31 | CC(F)(F)c1cnc(C(=O)Nc2ccc(F)c([C@@]3(C)N=C(N)OCC3(F)F)n2)c(N)n1 [Example 37, 3-Amino-5-(1,1-difluoro-ethyl)-pyrazine-2-carboxylic acid [6-((R)-2-amino-5,5-difluoro-4-methyl-5,6-dihydro-4H-[1,3]oxazin-4-yl)-5-fluoro-pyridin-2-yl]-amide] |  | 
